Assay results: patent US9018388B2, “Pesticidal compositions and processes related thereto” (Dow AgroSciences LLC, priority 2012, dated 2015)

Key:
[1] = test system: Green Peach Aphid (GPA) (Myzus persicae); assay: Bioassay on green peach aphid (GPA), foliar spray on cabbage seedlings; format: in vivo; conditions: 72 h, read-out: % Mortality GPA 200 ppm
Description: Bioassays on Green Peach Aphid (“GPA”) (Myzus persicae)
Certain molecules disclosed in this document were tested against GPA using procedures described in the following example. In the reporting of the results, the “GPA Rating Table” was used (See Table Section).
Cabbage seedlings grown in 3-inch pots, with 2-3 small (3-5 cm) true leaves, were used as test substrate. The seedlings were infested with 20-50 GPA (wingless adult and nymph stages) one day prior to chemical application. Four pots with individual seedlings were used for each treatment. Test compounds (2 mg) were dissolved in 2 mL of acetone/methanol (1:1) solvent, forming stock solutions of 1000 ppm test compound. The stock solutions were diluted 5× with 0.025% Tween 20 in H2O to obtain the solution at 200 ppm test compound. A hand-held aspirator-type sprayer was used for spraying a solution to both sides of […] leaves until runoff. Reference plants (solvent check) were sprayed with the diluent only containing 20% by volume of acetone/methanol (1:1) solvent. Treated plants were held in a holding room for three days at approximately 25° C. and ambient relative humidity (RH) prior to grading. Evaluation was conducted by counting the number of live aphids per plant under a microscope. Percent Control was measured by using Abbott's correction formula (W. S. Abbott, “A Method of Computing the Effectiveness of an Insecticide” J. Econ. Entomol. 18 (1925), pp. 265-267) as follows. Corrected%Control=100*(X−Y)/X • where • X=No. of live aphids on solvent check plants and • Y=No. of live aphids on treated plants
The results are indicated in the table entitled “Table 5: Biological Results” (See Table Section).

[2] = test system: Corn Earworm (CEW) (Helicoverpa zea); assay: Bioassay on corn earworm (CEW), 128-well diet tray assay; format: in vivo; conditions: Helicoverpa zea; Corn earworm, 50 μg/cm^2; read-out: % Mortality CEW 50 μg/cm^2
How it was run: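 Second-instar Helicoverpa zea larvae (one to five per well) placed on artificial diet treated with 50 μg/cm^2 compound in 90:10 acetone-water, dried, eight wells per compound. Held at 25 °C, 14:10 light-dark, five to seven days; percent mortality averaged over wells.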

[3] = test system: Beet Armyworm (BAW) (Spodoptera exigua); assay: Bioassay on beet armyworm (BAW), 128-well diet tray assay; format: in vivo; conditions: Spodoptera exigua; Beet armyworm, 50 μg/cm^2; read-out: % Mortality BAW 50 μg/cm^2
How it was run: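 Second-instar Spodoptera exigua larvae, one to five per well, on artificial diet treated with 50 μg/cm^2 compound in 90:10 acetone-water and dried, eight wells per compound. Held at 25 °C, 14:10 light-dark for five to seven days; percent mortality averaged over wells.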

melting point	SMILES	pest or weed control at 200 ppm [1] [%]	pest or weed control at 50 µg/cm2, 50 µg/cm2 [2] [%]	pest or weed control at 50 µg/cm2, 50 µg/cm2 [3] [%]
214 to 216 °C	CC(C)c1ccccc1NC(=S)N/N=C/c1ccc(-c2ncn(-c3ccc(OC(F)(F)C(F)(F)F)cc3)n2)cc1 [Compound I-33]			
133 to 135 °C	CC(C)c1ccc(F)cc1NC(=S)NN [Compound I-43]			
200 °C (dec.)	CC(C)c1ccccc1NC(=S)N/N=C/c1ccc(-c2ncn(-c3ccc4c(c3)OC(F)(F)O4)n2)cc1 [Compound I-36]			
163 to 217 °C	CC(C)c1cc(F)ccc1NC(=S)NN [Compound I-47]			
	CC(C)c1ccccc1N1C(=O)CCSC1=NN=Cc1ccc(-c2ncn(-c3ccc(OC(F)(F)F)cc3)n2)cc1 (stereo in doubt) [Compound 224C, (Z)-3-(2-isopropylphenyl)-2-((E)-(4-(1-(4-(trifluoromethoxy)phenyl)-1H-1,2,4-triazol-3-yl)benzylidene)hydrazono)-1,3-thiazinan-4-one]	0 to 80	50 to 100	50 to 100
	COC(=O)c1ccc(CS/C(=N\c2c(C)cccc2C)N/N=C/c2ccc(-c3ncn(-c4ccc(OC(F)(F)F)cc4)n3)cc2)cc1 [Compound 12C]	0 to 80	50 to 100	50 to 100
	Cc1cccc(C)c1-n1c(-c2ccc(C(=O)O)cc2)cs/c1=N\N=C\c1ccc(-c2ncn(-c3ccc(OC(F)(F)F)cc3)n2)cc1 [Compound 77C]	0 to 80	50 to 100	50 to 100
	Cc1cccc(C)c1/N=C(/N/N=C/c1ccc(-c2ncn(-c3ccc(OC(F)(F)F)cc3)n2)cc1)SCC(=O)NC[C@@H]1CCCNC1 [Compound 62C, (1Z,2E)-2-oxo-2-(((R)-piperidin-3-ylmethyl)amino)ethyl N-(2,6-dimethylphenyl)-2-(4-(1-(4-(trifluoromethoxy)phenyl)-1H-1,2,4-triazol-3-yl)benzylidene)hydrazinecarbimidothioate trifluoroacetic acid]	0 to 80	50 to 100	50 to 100
158 to 160 °C	CC(C)c1c(F)cccc1NC(=S)NN [Compound I-51]			
	CC(C)Cc1ccccc1N1CCCS/C1=N\N=C\c1ccc(-c2ncn(-c3ccc(OC(F)(F)F)cc3)n2)cc1 [Compound 193C]	0 to 80	50 to 100	50 to 100
	CCc1ccccc1N1CCS/C1=N\N=C\c1ccc(-c2ncn(-c3ccc(OC(F)(F)F)cc3)n2)cc1 [Compound 133C]	0 to 80	50 to 100	50 to 100
	Cc1ncccc1N1CCCS/C1=N\N=C\c1ccc(-c2ncn(-c3ccc(OC(F)(F)F)cc3)n2)cc1 [Compound 205C]	0 to 80	50 to 100	50 to 100
	CC(C)c1ccccc1N1C(=O)CS/C1=N\N=C\c1ccc(-c2ncn(-c3ccc(OC(F)(F)F)cc3)n2)cc1 [Compound 73C]	0 to 80	50 to 100	50 to 100
	Cc1cccc(C)c1N1CCCS/C1=N\N=C\c1ccc(-c2ncn(-c3ccc(OC(F)(F)F)cc3)n2)cc1 [Compound 182C]	0 to 80	50 to 100	50 to 100
	Cc1cccc(C)c1/N=C(/N/N=C/c1ccc(-c2ncn(-c3ccc(OC(F)(F)F)cc3)n2)cc1)SCc1ccc(S(N)(=O)=O)cc1 [Compound 13C]	0 to 80	50 to 100	50 to 100
	Cc1cccc(C)c1/N=C(/N/N=C/c1ccc(-c2ncn(-c3ccc(OC(F)(F)F)cc3)n2)cc1)SCOC(=O)OC(C)C [Compound 24C]	0 to 80	50 to 100	50 to 100
	CC(C)=Cc1ccccc1N1C(=O)CS/C1=N\N=C\c1ccc(-c2ncn(-c3ccc(OC(F)(F)F)cc3)n2)cc1 [Compound 121C]	0 to 80	50 to 100	50 to 100
	Cc1cccc(C)c1/N=C(/N/N=C/c1ccc(-c2ncn(-c3ccc(OC(F)(F)F)cc3)n2)cc1)SCc1ccc(OC(F)(F)F)cc1 [Compound 8C]	0 to 80	50 to 100	50 to 100
	Fc1cccc(Cl)c1N1CCCS/C1=N\N=C\c1ccc(-c2ncn(-c3ccc(OC(F)(F)F)cc3)n2)cc1 [Compound 188C]	0 to 80	50 to 100	50 to 100
139 to 141 °C	CC(F)(F)c1ccc(-n2cnc(-c3ccc(C=O)cc3)n2)cc1 [Compound I-62]			
	COc1cc(C)c(N2CCCS/C2=N\N=C\c2ccc(-c3ncn(-c4ccc(OC(F)(F)F)cc4)n3)cc2)c(C)c1 [Compound 181C]	0 to 80	50 to 100	50 to 100
	Fc1cccc(F)c1N1CCCS/C1=N\N=C\c1ccc(-c2ncn(-c3ccc(OC(F)(F)F)cc3)n2)cc1 [Compound 189C]	0 to 80	50 to 100	50 to 100
